Reference: ChEMBL document CHEMBL6120996, “Discovery and optimization of 1,2,4-triazole derivatives as novel ferroptosis inhibitors” (Eur J Med Chem, 2025)
pEC50: −log10 of the molar value. Activity calls are given as the source filed them. No cut-off for these calls is given here.

Experiments:
786-0 [1] = test: Effect on SLC7A11 expression in human 786-0 cells at 1 uM incubated for 2.5 hrs by Western blot analysis; type: functional, cell-based
786-0 [2] = test: Effect on IRP1 expression in human 786-0 cells at 1 uM incubated for 2.5 hrs by western blot analysis; type: functional, cell-based
Mus musculus [3] = test: Anti-ferroptotic activity in ConA-induced C57 mouse acute liver injury model assessed as assessed as reduction in PTGS2 mRNA levels in liver tissue at 10 mg/kg, ip pre-administered one day followed by treated with ConA measured after 24 hrs by qRT-PCR analysis; type: functional, organism-based; details: time 48.0 hrs
786-0 [4] = test: Cytotoxicity against human 786-0 cells assessed as cell viability incubated for 24 hrs by CellTiter-LumiTM assay; type: functional
Mus musculus [5] = test: Anti-ferroptotic activity in ConA-induced C57 mouse liver injury model assessed as reduction in ALT levels in serum at 10 mg/kg, ip pre-treated 1 day followed by treated with ConA measured after 24 hrs; type: functional, organism-based; details: time 2.0 day
Mus musculus [6] = test: Anti-ferroptotic activity in ConA-induced C57 mouse liver injury model assessed as decrease in acute liver injury at 10 mg/kg, ip pre-administered one day followed by treated with ConA measured after 24 hrs by HE staining based analysis; type: functional, organism-based; details: time 48.0 hrs
786-0 [7] = test: Effect on FTH1 expression in human 786-0 cells in presence of 0.25 uM RSL3 at 1 uM incubated for 2.5 hrs by Western blot analysis; type: functional, cell-based
[8] = Microsomal stability in rat liver microsomes assessed as hepatic extraction ratio at 0.1 uM by LC-MS/MS analysis; type: ADME, Microsome; details: read-out: ERH
[9] = Microsomal stability in rat liver microsomes assessed as hepatic clearance at 0.1 uM by LC-MS/MS analysis; type: ADME, Microsome
[10] = Metabolic stability in human plasma assessed as half life at 1 uM by LC-MS/MS analysis; type: ADME, cell-free
786-0 [11] = test: Effect on erastin-induced decrease in GSH level in human 786-0 cells at 1 uM incubated for 10 hrs by Total intracellular GSH assay; type: functional, cell-based
786-0 [12] = test: Effect on FTL expression in human 786-0 cells in presence of 0.25 uM RSL3 at 1 uM incubated for 2.5 hrs by Western blot analysis; type: functional, cell-based
[13] = Inhibition of RSL3 induced ferroptosis in human SK-HEP1 cells assessed as cell viability incubated for 24 hrs by CellTiter-LumiTM assay; type: functional, cell-based; details: SK-HEP1, 24 h
SK-HEP1 [14] = test: Inhibition of RSL3 induced lipid-ROS accumulation in human SK-HEP1 cells at 1 uM incubated for 0.5 hrs by C11-BODIPY 581/591 staining coupled with flow cytometry analysis; type: functional, cell-based
Mus musculus [15] = test: Anti-ferroptotic activity in ConA-induced C57 mouse acute liver injury model assessed as assessed as reduction in 4-HNE accumulation in liver tissue at 10 mg/kg, ip pre-administered one day followed by treated with ConA measured after 24 hrs by 4-HNE staining based analysis; type: functional, organism-based; details: time 48.0 hrs
[16] = Metal chelating activity assessed as Fe2+ chelation assessed as absorbance peak at 430 nm by UV-vis spectroscopy; details: dose 1.0 µM
[17] = Microsomal stability in rat liver microsomes assessed as half life at 0.1 uM by LC-MS/MS analysis; type: ADME, Microsome; details: liver microsomes
[18] = Microsomal stability in human liver microsomes assessed as hepatic extraction ratio at 0.1 uM by LC-MS/MS analysis; type: ADME, Microsome; details: read-out: ERH
[19] = Microsomal stability in human liver microsomes assessed as hepatic clearance at 0.1 uM by LC-MS/MS analysis; type: ADME, Microsome
786-0 [20] = test: Inhibition of RSL3 induced ferroptosis in human 786-0 cells assessed as cell viability in presence of iFSP1 at 1 uM measured after 24 hrs by CellTiter-LumiTM assay; type: functional, cell-based
786-0 [21] = test: Inhibition of RSL3-induced ferroptosis in human 786-0 cells assessed as cell viability by assessing cell morphology incubated for 24 hrs by CellTiter-LumiTM plus luminescent cell viability assay; type: functional, cell-based; details: 786-0, 24 h
[22] = Metabolic stability in rat plasma assessed as half life at 1 uM by LC-MS/MS analysis; type: ADME, cell-free
786-0 [23] = test: Effect on TFRC expression in human 786-0 cells at 1 uM incubated for 2.5 hrs by Western blot analysis; type: functional, cell-based
786-0 [24] = test: Inhibition of STS induced apoptosis in human 786-0 cells assessed as cell viability at 1 uM incubated for 24 hrs by CellTiter-LumiTM assay; type: functional, cell-based
786-0 [25] = test: Effect on FTH1 expression in human 786-0 cells at 1 uM incubated for 2.5 hrs by western blot analysis; type: functional, cell-based
786-0 [26] = test: Inhibition of RSL3-induced ferroptosis in human 786-0 cells assessed as cell viability incubated for 24 hrs by CellTiter-LumiTM assay; type: functional, cell-based; details: 786-0, 24 h
[27] = Inhibition of RSL3 induced ferroptosis in human HT-1080 cells assessed as cell viability incubated for 24 hrs by CellTiter-LumiTM assay; type: functional, cell-based; details: HT-1080, 24 h
HT-1080 = test: Anti-ferroptotic activity in human GPX4 knockout HT-1080 cells assessed as cell viability at 1 uM incubated for 24 hrs by CellTiter-LumiTM plus luminescent cell viability assay; type: functional, cell-based
786-0 [28] = test: Effect on TFRC expression in human 786-0 cells in presence of 0.25 uM RSL3 at 1 uM incubated for 2.5 hrs by Western blot analysis; type: functional, cell-based
[29] = Antioxidant activity assessed as free radical scavenging activity incubated for 30 mins in dark by DPPH assay relative to control; type: functional
786-0 [30] = test: Effect on IRP1 expression in human 786-0 cells in presence of 0.25 uM RSL3 at 1 uM incubated for 2.5 hrs by Western blot analysis; type: functional, cell-based
[31] = Inhibition of RSL3 induced ferroptosis in human MHCC97H cells assessed as cell viability incubated for 24 hrs by CellTiter-LumiTM assay; type: functional, cell-based
[32] = Microsomal stability in human liver microsomes assessed as half life at 0.1 uM by LC-MS/MS analysis; type: ADME, Microsome; details: liver microsomes
786-0 [33] = test: Inhibition of H2O2 induced necrosis in human 786-0 cells assessed as cell viability at 1 uM incubated for 24 hrs by CellTiter-LumiTM assay; type: functional, cell-based
[34] = Inhibition of erastin induced ferroptosis in human 786-0 cells assessed as cell viability incubated for 24 hrs by CellTiter-LumiTM assay; type: functional, cell-based; details: 786-0, 24 h
786-0 [35] = test: Effect on GPX4 expression in human 786-0 cells at 1 uM incubated for 2.5 hrs by Western blot analysis; type: functional, cell-based
786-0 [36] = test: Inhibition of RSL3 induced lipid-ROS accumulation in human 786-0 cells assessed as fast elimination at 1 uM measured after 0.25 to 2.5 hrs by C11-BODIPY 581/591 staining coupled with flow cytometry analysis; type: functional, cell-based; details: time 0.25-2.5 hrs
786-0 [37] = test: Inhibition of RSL3-induced ferroptosis in human 786-0 cells assessed as cell protection by assessing cell morphology at 1 uM incubated for 24 hrs; type: functional, cell-based
786-0 [38] = test: Effect on ACSL4 expression in human 786-0 cells at 1 uM incubated for 2.5 hrs by Western blot analysis; type: functional, cell-based
Mus musculus [39] = test: Anti-ferroptotic activity in ConA-induced C57 mouse liver injury model assessed as reduction in AST levels in serum at 10 mg/kg, ip pre-treated 1 day followed by challenged with ConA measured after 24 hrs; type: functional, organism-based
786-0 [40] = test: Inhibition of RSL3 induced lipid-ROS accumulation in human 786-0 cells incubated for 2.5 hrs by C11-BODIPY 581/591 staining coupled with flow cytometry analysis; type: functional, cell-based; details: dose 0.1-1 µM
Mus musculus [41] = test: Anti-ferroptotic activity in ConA-induced C57 mouse acute liver injury model assessed as reduction in malondialdehyde levels at 10 mg/kg, ip pre-administered one day followed by treated with ConA measured after 24 hrs by MDA kit assay; type: functional, organism-based; details: time 48.0 hrs
786-0 [42] = test: Metal chelating activity assessed as Fe2+ chelation in human 786-0 cells assessed as intracellular ferrous ion level at 1 uM by FerroOrange fluorescent probe based assay; type: cell-based
[43] = Suppression of autoxidation of liposomes egg ( unknown origin) phosphatidylcholine lipids as substrate at 0.1 to 2.5 uM incubated for 5 min by C11-BODIPY 581/591 dye based fluorescent assay; type: functional; details: dose 0.1-2.5 µM
SK-HEP1 [44] = test: Inhibition of RSL3 induced lipid-ROS accumulation in human SK-HEP1 cells at 1 uM incubated for 2.5 hrs by C11-BODIPY 581/591 staining coupled with flow cytometry analysis; type: functional, cell-based
786-0 [45] = test: Effect on FTL expression in human 786-0 cells at 1 uM incubated for 2.5 hrs by western blot analysis; type: functional, cell-based
[46] = Inhibition of RSL3 induced ferroptosis in H9c2 cells assessed as cell viability incubated for 24 hrs by CellTiter-LumiTM assay; type: functional, cell-based; details: Rattus norvegicus, H9c2, 24 h

SMILES: COc1cccc(C2N(c3ccccc3)N=C(C(C)=O)N2c2ccc(N(C)C)cc2)c1OCc1ccc(F)c(F)c1 (configuration not stated)
- Activity (786-0 [1]): No effect
- Activity (786-0 [2]): No effect
- Activity (Mus musculus [3]): Active
- CC50 (786-0 [4]): > 40000 nM
- Activity (Mus musculus [5]): Active
- Activity (Mus musculus [6]): Active
- Activity (786-0 [7]): inactive
- hepatic extraction ratio at 0.1 µM [8]: 0.987
- CLhep predicted at 0.1 µM [9]: 54.5 mL/min/kg
- half-life at 1 µM [10]: 33.7 h
- Activity (786-0 [11]): inactive
- Activity (786-0 [12]): inactive
- pEC50 [13]: 6.87
- inhibition (SK-HEP1 [14]): Active
- Activity (Mus musculus [15]): Active
- Activity [16]: inactive
- half-life at 0.1 µM [17]: 2.87 min
- hepatic extraction ratio at 0.1 µM [18]: 0.986
- CLhep predicted at 0.1 µM [19]: 20.4 mL/min/kg
- inhibition (786-0 [20]): Active
- pEC50 (786-0 [21]): 7.21
- half-life at 1 µM [22]: 6.58 h
- Activity (786-0 [23]): No effect
- inhibition (786-0 [24]): inactive
- Activity (786-0 [25]): No effect
- pEC50 (786-0 [26]): 7.22
- pEC50 [27]: 6.73
- Activity (HT-1080): Active
- Activity (786-0 [28]): inactive
- Activity [29]: Active
- Activity (786-0 [30]): inactive
- pEC50 [31]: 6.54
- half-life at 0.1 µM [32]: 5.74 min
- inhibition (786-0 [33]): inactive
- pEC50 [34]: 7.36
- Activity (786-0 [35]): No effect
- inhibition (786-0 [36]): Active; Eliminated As Fast As Fer-1
- Activity (786-0 [37]): Active
- Activity (786-0 [38]): No effect
- Activity (Mus musculus [39]): Active
- inhibition (786-0 [40]): Dose-dependent-effect
- Activity (Mus musculus [41]): Active
- Activity (786-0 [42]): inactive
- Activity [43]: Dose-dependent-effect
- inhibition (SK-HEP1 [44]): Active
- Activity (786-0 [45]): No effect
- pEC50 [46]: 6.91
